Laboratory results taken from US20080020068A1, “Use Of Trisubstituted Benzopyranones” (Dr.Willmar Schwabe GmbH & Co. KG, priority 2004, published 2008).
Marks after values point to notes of the source that are not given here. One block for each compound: values may come before it.

How the values were obtained:
[1] = tested on: autoxidation of lipids (brain tissue of male mice); assay: Inhibition of autoxidation of lipids in mouse brain homogenate (chemiluminescence); format: biochemical, mice (NMRI); details: chemiluminescence over 60 minutes, vs solvent control
Description: The autoxidation of lipids is associated with the emission of light. The determination of this extraordinarily weak chemiluminescence can be used for both quantifying peroxides and evaluating the efficacy of antioxidants. Brain tissue of male mice (NMRI; 20-30 g; Centre d'Elevage Janvier, Le Genest-Saint Isle, France) served as lipid-rich tissue in the present investigations. After its extraction the brain was washed with ice-cold phosphate-buffered physiological saline solution (PBS, pH 7.4) and freed from meninges and residual blood. The tissue samples were homogenised with 4 times their volume (v/w) made up of PBS and centrifugated at 1000×g and 4° C. for 10 minutes. The supernatants were immediately diluted with the same buffer to 3 times their volume and stored on ice. 250 μl of the diluted supernatant was transferred into a test tube and incubated for 10 minutes at 37° C. in a 6-channel luminometer (Multi-Biolumat LB 9505 C, Berthold, Bad Wildbad). After adding 25 μl of compound II in PBS added with 2.5% DMSO the incubation was continued for further 10 minutes. Then the intensity of the chemiluminescence (CL) was determined over a period of 60 minutes. The percentage of the inhibition of the autoxidation was calculated in comparison to the solvent control (PBS added with 2.5% DMSO) measured simultaneously. […]

cyclooxygenase-2 (COX2) = target: T1, cyclooxygenase-2 (COX2) (Homo sapiens, UniProt P35354); assay: Cyclooxygenase-2 activity in human whole blood (PGE2 after aspirin pretreatment and LPS); format: cell-based; details: for PGE2: aspirin pretreated, LPS 10 μg/ml, 18 h; for PGE2 Effect (%): percentage change vs solvent control
T1 construct: to induce the expression of COX2 25 μl of lipopolysaccharide of E. coli; endogenous in cells; host or cells: heparinised human whole blood, aspirin-pretreated, COX2 induced with LPS
T1 sequence (P35354 18-604): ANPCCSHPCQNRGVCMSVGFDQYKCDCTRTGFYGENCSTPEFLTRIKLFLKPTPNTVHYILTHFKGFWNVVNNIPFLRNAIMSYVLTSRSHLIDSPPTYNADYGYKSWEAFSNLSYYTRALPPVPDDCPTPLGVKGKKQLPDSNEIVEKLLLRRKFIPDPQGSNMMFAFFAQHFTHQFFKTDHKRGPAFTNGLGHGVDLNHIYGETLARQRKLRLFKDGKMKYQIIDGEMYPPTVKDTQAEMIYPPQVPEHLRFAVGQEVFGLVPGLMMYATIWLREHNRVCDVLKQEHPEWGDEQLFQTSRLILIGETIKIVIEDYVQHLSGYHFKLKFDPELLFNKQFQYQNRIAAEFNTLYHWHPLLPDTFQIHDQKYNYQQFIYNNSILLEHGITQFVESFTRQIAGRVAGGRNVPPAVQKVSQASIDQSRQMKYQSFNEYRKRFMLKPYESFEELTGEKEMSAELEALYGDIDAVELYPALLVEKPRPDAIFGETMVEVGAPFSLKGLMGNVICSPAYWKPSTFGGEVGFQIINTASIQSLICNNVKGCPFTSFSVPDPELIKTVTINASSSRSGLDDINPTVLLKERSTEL
Description: (§1) Heparinised human whole blood was used for the investigations. 100 μl of whole blood were added into each well of 96-well microtiter plates. Separated plates were used for the determination of the cyclooxygenase-1 (COX1) and lipoxygenase (LO) activiy as well as for the induction of cyclooxygenase-2 (COX2).
Then compound II and the solvent (DMEM with 0.1% DMSO), respectively, were added in a volume of 25 μl. Moreover, to induce the expression of COX2 25 μl of lipopolysaccharide of E. coli (serotype 0127:B8, final concentration 10 μg/ml) were added. After incubating for 18 h at 37° C. the plasma was recovered as described above and also stored at −80° C. until analysed.
(§2) In the plasma samples TXB2, PGE2 and cystenyl leukotrienes (cystenyl-LT) were determined as parameters for the COX1, COX2 and LO activity. For the analysis commercial EIA test kits (TXB2 and PGE2: Caymann/IBL, Hamburg; cystenyl leukotrienes: CAST-2000, Milenia, Bad Nauheim) were used in accordance with the manufacturers' instructions. […] This spectrum of efficacy is to be regarded as extremely advantageous because in the therapeutic use of compound II the side effects typical of COX1 inhibitors, such as gastrointestinal complications (erosions, ulcerations) or hemorrhages due to the inhibition of the thrombocyte aggregation need therefore not to be taken into consideration.

cyclooxygenase-1 (COX1) = target: T2, cyclooxygenase-1 (COX1) (Homo sapiens, UniProt P23219); assay: Cyclooxygenase-1 activity in human whole blood (TXB2 after A23187); format: cell-based; details: for TXB2: A23187 50 μM; for TXB2 Effect (%): percentage change vs solvent control
T2 construct: endogenous in cells; host or cells: heparinised human whole blood (platelets), stimulated with A23187
Description: as §1
(§3) Compound II was diluted in DME medium (DMEM) with 1% of antibiotics/antimycotics solution and 2 mM L-glutamine (Sigma, Deisenhofen) using DMSO (final concentration 0.1%) as solubility promoter. After adding 50 μl of compound II the tests were incubated for 60 min. at 37° C. Subsequently, 50 μl of calciumionophor A23187 (final concentration 50 μM) were added to stimulate the eicosanoid synthesis. After incubating for further 30 min. at 37° C. the microtiter plates were centrifuged for 5 min. at 4° C. with 1500 g. The plasma was pipetted off and frozen at −80° C. until analysed.
as §2

IL-1β = assay: Synthesis of IL-1β in LPS-stimulated activated murine peritoneal macrophages; format: cell-based, mouse; details: for IL-1β: LPS 1 μg/ml, 24 h, average of three parallel tests; for IL-1β Effect (%): percentage change vs solvent control
Description: (§4) The influence of compound II on the synthesis of the proinflammatory cytokines IL-1β, TNF-α and IL-6 was determined by using activated murine peritoneal macrophages. In order to recover the activated macrophages 3×10^9 killed coryn bacterium parvum bacteria (Changzhou Yanshen Co. Ltd., Changzhou, China) in 0.5 ml PBS were injected intraperitoneally into male NMRI mice (Centre d'Elevage Janvier, Le Genest-Saint Isle, France). 6 days later the abdominal cavity was rinsed with 2.5 ml Hanks' balanced saline solution (HBSS) free of calcium and magnesium added with 10 U/ml heparine. The cells were resuspended at a concentration of 2×10^6 cells/ml in complete RPMI medium supplemented with 10% fetal bovine serum. […] cell suspension were filled into the wells of 96-well microtiter plates, respectively. After an incubation period of 2 h non-adherent cells were removed and the remaining cell lawn was washed twice with culture medium (37° C.). The macrophages were preincubated for 30 min. with compound II and then the synthesis of proinflammatory cytokines was induced by adding 1 μg/ml lipopolysaccharide of E. coli (serotype 0127:B8, Sigma, Deisenhofen). After incubating for 24 h (37° C., 5% CO2 in air) the cells were lysed by freezing and thawing for three times, the cell supernatants were recovered and frozen at −80° C. until analysed. The determination of the cytokine concentration in the cell supernatant was effected by means of commercial test kits (Duosets IL-1β, TNF-α and IL-6, R&D, Wiesbaden) in correspondence with the manufacturer's instructions. All investigations were conducted three times. The influence of compound II on the synthesis of the cytokines was evaluated in comparison to solvent controls (0.1% DMSO in complete RPMI medium) that were tested simultaneously.

IL-6 = assay: Synthesis of IL-6 in LPS-stimulated activated murine peritoneal macrophages; format: cell-based, mouse; details: for IL-6 pg/ml: LPS 1 μg/ml, 24 h, average of three parallel tests; for IL-6 Effect (%): percentage change vs solvent control
Description: as §4

lipoxygenase (LO) = target: T3, lipoxygenase (LO) (Homo sapiens, UniProt P09917); assay: Lipoxygenase activity in human whole blood (cystenyl-LT after A23187); format: cell-based; details: for Cystenyl-LT: A23187 50 μM; for Cystenyl-LT Effect (%): percentage change vs solvent control
T3 construct: endogenous in cells; host or cells: heparinised human whole blood (leukocytes), stimulated with A23187
T3 sequence (P09917 1-674): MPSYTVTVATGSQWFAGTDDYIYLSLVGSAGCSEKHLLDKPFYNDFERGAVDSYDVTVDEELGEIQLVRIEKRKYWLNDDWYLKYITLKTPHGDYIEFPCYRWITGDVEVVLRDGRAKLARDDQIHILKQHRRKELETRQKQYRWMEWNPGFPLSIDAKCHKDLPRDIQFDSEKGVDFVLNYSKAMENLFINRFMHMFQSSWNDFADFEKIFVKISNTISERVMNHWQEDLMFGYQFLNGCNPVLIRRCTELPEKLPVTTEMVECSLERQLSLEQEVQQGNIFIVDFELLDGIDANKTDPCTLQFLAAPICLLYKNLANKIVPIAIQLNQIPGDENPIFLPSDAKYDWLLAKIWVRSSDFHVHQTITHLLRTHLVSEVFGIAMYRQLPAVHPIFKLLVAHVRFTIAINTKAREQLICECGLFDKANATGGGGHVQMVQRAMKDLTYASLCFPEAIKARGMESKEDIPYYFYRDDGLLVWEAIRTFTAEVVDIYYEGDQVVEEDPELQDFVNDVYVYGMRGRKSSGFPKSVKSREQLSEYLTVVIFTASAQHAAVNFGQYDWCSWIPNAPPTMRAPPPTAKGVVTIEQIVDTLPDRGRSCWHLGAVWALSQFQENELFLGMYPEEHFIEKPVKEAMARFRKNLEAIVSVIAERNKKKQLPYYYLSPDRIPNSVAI
Description: as §1, §3, §2

TNF-α = assay: Synthesis of TNF-α in LPS-stimulated activated murine peritoneal macrophages; format: cell-based, mouse; details: for TNF-α: LPS 1 μg/ml, 24 h, average of three parallel tests; for TNF-α Effect (%): percentage change vs solvent control
Description: as §4

[2] = 10 μg/ml (first line so printed, r17-18), human whole blood
[3] = 10 μg/ml (first line so printed, r17-18)
[4] = 10 μg/ml (second line so printed, r19-20), human whole blood
[5] = 10 μg/ml (second line so printed, r19-20)
[6] = 30 μg/ml, human whole blood, average of two parallel tests
[7] = 100 μg/ml, human whole blood, average of two parallel tests

T2 sequence (P23219 24-599): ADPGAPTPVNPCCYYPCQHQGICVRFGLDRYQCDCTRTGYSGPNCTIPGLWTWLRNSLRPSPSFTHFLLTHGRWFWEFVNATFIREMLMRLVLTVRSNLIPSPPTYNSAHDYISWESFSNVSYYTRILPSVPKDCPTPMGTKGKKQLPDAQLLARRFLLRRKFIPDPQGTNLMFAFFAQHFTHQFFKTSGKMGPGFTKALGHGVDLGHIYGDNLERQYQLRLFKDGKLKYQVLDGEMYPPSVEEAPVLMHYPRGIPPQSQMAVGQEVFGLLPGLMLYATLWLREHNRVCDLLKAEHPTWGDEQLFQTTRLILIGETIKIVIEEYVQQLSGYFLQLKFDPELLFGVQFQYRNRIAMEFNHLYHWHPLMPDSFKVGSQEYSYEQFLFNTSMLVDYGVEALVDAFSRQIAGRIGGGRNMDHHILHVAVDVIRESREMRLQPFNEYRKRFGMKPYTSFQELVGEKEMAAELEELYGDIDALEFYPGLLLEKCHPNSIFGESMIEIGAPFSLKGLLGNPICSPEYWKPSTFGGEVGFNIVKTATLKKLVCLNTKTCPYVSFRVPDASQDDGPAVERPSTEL

PGE2 (cyclooxygenase-2 (COX2); [2]): 3679 pg/mL | PGE2 Effect (%) (cyclooxygenase-2 (COX2); [3]): −66% | PGE2 (cyclooxygenase-2 (COX2); [4]): 5499 pg/mL | PGE2 Effect (%) (cyclooxygenase-2 (COX2); [5]): −49% | PGE2 (cyclooxygenase-2 (COX2); [6]): 2626 pg/mL | PGE2 Effect (%) (cyclooxygenase-2 (COX2); 30 μg/ml): −76% | PGE2 (cyclooxygenase-2 (COX2); [7]): 2232 pg/mL | PGE2 Effect (%) (cyclooxygenase-2 (COX2); 100 μg/ml): −79% | inhibition of the activity of COX2 (in words) (cyclooxygenase-2 (COX2); human whole blood): potent inhibition | TXB2 (cyclooxygenase-1 (COX1); [2]): 7825 pg/mL | TXB2 Effect (%) (cyclooxygenase-1 (COX1); [3]): −20% | TXB2 (cyclooxygenase-1 (COX1); [4]): 7278 pg/mL | TXB2 Effect (%) (cyclooxygenase-1 (COX1); [5]): −26% | TXB2 (cyclooxygenase-1 (COX1); [6]): 9993 pg/mL | TXB2 Effect (%) (cyclooxygenase-1 (COX1); 30 μg/ml): +2% | TXB2 (cyclooxygenase-1 (COX1); [7]): 9115 pg/mL | TXB2 Effect (%) (cyclooxygenase-1 (COX1); 100 μg/ml): −7% | effect on the activity of COX1 (in words) (cyclooxygenase-1 (COX1); human whole blood): hardly affected | Cystenyl-LT (lipoxygenase (LO); [2]): 3557 pg/mL | Cystenyl-LT Effect (%) (lipoxygenase (LO); [3]): −51% | Cystenyl-LT (lipoxygenase (LO); [4]): 5193 pg/mL | Cystenyl-LT Effect (%) (lipoxygenase (LO); [5]): −28% | Cystenyl-LT (lipoxygenase (LO); [6]): 2089 pg/mL | Cystenyl-LT Effect (%) (lipoxygenase (LO); 30 μg/ml): −71% | Cystenyl-LT (lipoxygenase (LO); [7]): 661 pg/mL | Cystenyl-LT Effect (%) (lipoxygenase (LO); 100 μg/ml): −91% | inhibition of the activity of LO (in words) (lipoxygenase (LO); human whole blood): potent inhibition
SMILES: O=c1ccc2cc(O)c(O)c(O)c2o1 [Compound II, 6,7,8-Trihydroxy-2H-1-benzopyran-2-one]
half-maximal inhibitory concentration, autoxidation of lipids [1]: 53 ng/mL | IL-1β (IL-1β; 10 μg/ml): 3789 pg/mL | IL-1β Effect (%) (IL-1β; 10 μg/ml): +7% | IL-1β (IL-1β; 30 μg/ml): 3356 pg/mL | IL-1β Effect (%) (IL-1β; 30 μg/ml): −6% | inhibition of the synthesis of IL-1β (in words) (IL-1β; 100 μg/ml): significant inhibition | IL-1β (IL-1β; 100 μg/ml): 430 pg/mL | IL-1β Effect (%) (IL-1β; 100 μg/ml): −88* % | IL-6 pg/ml (IL-6; 10 μg/ml): 23078 pg/mL | IL-6 Effect (%) (IL-6; 10 μg/ml): −27* % | IL-6 pg/ml (IL-6; 30 μg/ml): 22519 pg/mL | IL-6 Effect (%) (IL-6; 30 μg/ml): −28* % | inhibition of the synthesis of IL-6 (in words) (IL-6; 100 μg/ml): significant inhibition | IL-6 pg/ml (IL-6; 100 μg/ml): 976 pg/mL | IL-6 Effect (%) (IL-6; 100 μg/ml): −97* % | TNF-α (TNF-α; 10 μg/ml): 10050 pg/mL | TNF-α Effect (%) (TNF-α; 10 μg/ml): +19% | TNF-α (TNF-α; 30 μg/ml): 10189 pg/mL | TNF-α Effect (%) (TNF-α; 30 μg/ml): +21% | inhibition of the synthesis of TNF-α (in words) (TNF-α; 100 μg/ml): significant inhibition | TNF-α (TNF-α; 100 μg/ml): 6251 pg/mL | TNF-α Effect (%) (TNF-α; 100 μg/ml): −26* %

SMILES: Cc1c(C)c2c(c(C)c1O)CCC(C)(C(=O)O)O2 (centres unmarked) [Trolox, reference compound]
half-maximal inhibitory concentration, autoxidation of lipids [1]: 1665 ng/mL
